Among the test systems are OVCAR-8 ovarian; SW-620 colon; A549 NSCLC; ACHN renal; MCF7 breast; HCC-2998 colon; OVCAR-5 ovarian; HOP-62 NSCLC; SK-MEL-5 melanoma; SR leukemia; HCT-116 colon; NCI-H23 lung; COLO 205 colon; TK-10 renal; HL-60(TB) leukemia; LOX IMVI melanoma; MDA-N.
Common to all, as to assay: DTP human tumour cell line panel, 48 h

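48-hour exposure; five concentrations; linearly interpolated endpoints. TGI denotes the concentration required for complete inhibition of growth.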

For orientation: TGI means the concentration at which net growth stops. `CCCCCCCCCCCCCCCCOP(=O)([O-])OCC[N+](C)(C)C1CC(C)(C)N(O)C(C)(C)C1`: the TGI with OVCAR-8 ovarian, in the test with SW-620 colon, with A549 NSCLC, with ACHN renal, in the test with MCF7 breast and in the test with HCC-2998 colon was greater than 100 µM throughout. The TGI in the test on OVCAR-5 ovarian, with HOP-62 NSCLC, in the test with SK-MEL-5 melanoma, in the test with SR leukemia, in the test with HCT-116 colon and with NCI-H23 lung was greater than 100 µM in each case. The TGI with COLO 205 colon and with TK-10 renal was greater than 100 µM in each case.

Turning to `COC(=O)C(=O)C(C(=O)C(=O)Nc1cccc(OC)c1)c1nc2ccc(Cl)cc2[nH]c1=O` (centres undefined), the TGI in the test on OVCAR-8 ovarian, with SW-620 colon, with A549 NSCLC, in the test with ACHN renal, in the test on MCF7 breast and in the test on HCC-2998 colon was greater than 100 µM in each case. For the same compound, the TGI in the test on OVCAR-5 ovarian, in the test with SK-MEL-5 melanoma, with HL-60(TB) leukemia, in the test with HCT-116 colon, with NCI-H23 lung and in the test on COLO 205 colon was greater than 100 µM throughout. Besides, the TGI in the test with LOX IMVI melanoma, with TK-10 renal and in the test on MDA-N was greater than 100 µM throughout.

In the case of `Fc1ccc2c(c1)SC1=Nc3sc4cc(F)ccc4[n+]3CN12`, the total growth inhibition concentration (TGI) is 38 µM in the test on OVCAR-8 ovarian; greater than 100 µM with SW-620 colon; 58.3 µM in the test with A549 NSCLC; 62.2 µM in the test with ACHN renal; greater than 100 µM in the test on MCF7 breast; 47.5 µM in the test with HCC-2998 colon. In addition, the TGI in the test on OVCAR-5 ovarian was greater than 100 µM; in the test with HOP-62 NSCLC it was 56.1 µM; in the test with SK-MEL-5 melanoma, 28.2 µM; with HL-60(TB) leukemia it was 0.184 µM; in the test with HCT-116 colon, greater than 100 µM; with NCI-H23 lung it was 47.3 µM. Besides, the TGI is greater than 100 µM in the test on COLO 205 colon, 52.5 µM in the test with LOX IMVI melanoma and 42.7 µM in the test on TK-10 renal.

In the case of `CCOC(=O)c1c(C)n(-c2ccc(C)cc2)c(=O)c2ccccc2c(=O)c2c(=O)ccc(=O)c1=2`, the TGI amounted to 33.6 µM in the test on OVCAR-8 ovarian; 49.9 µM in the test with SW-620 colon; 58.1 µM with A549 NSCLC; 31.9 µM in the test with ACHN renal; 63.9 µM in the test with MCF7 breast; 27.7 µM in the test with HCC-2998 colon. The TGI was determined as 75.5 µM with OVCAR-5 ovarian; 46 µM with HOP-62 NSCLC; 30.4 µM in the test with SK-MEL-5 melanoma; 40.8 µM in the test with HL-60(TB) leukemia; 33.3 µM in the test on HCT-116 colon; 32 µM in the test on NCI-H23 lung. Besides, the values for the TGI with COLO 205 colon, in the test with LOX IMVI melanoma and in the test on TK-10 renal were 36.1 µM, 36.4 µM and 29.4 µM, respectively.

Take `CCOc1ccc(OP2(=O)NC(=O)C=C(C)N2)cc1` (centres undefined): the TGI in the test on OVCAR-8 ovarian, in the test with SW-620 colon, in the test with A549 NSCLC, in the test with ACHN renal, in the test on OVCAR-5 ovarian and in the test on HOP-62 NSCLC was greater than 100 µM throughout. Also, the concentration for total growth inhibition (TGI) with SK-MEL-5 melanoma, in the test on HL-60(TB) leukemia, in the test on SR leukemia, in the test with HCT-116 colon, in the test with NCI-H23 lung and in the test with COLO 205 colon was greater than 100 µM in each case. In addition, the TGI in the test with LOX IMVI melanoma and in the test on TK-10 renal was greater than 100 µM each time.

As to `CS(=O)(=O)CCC1CCC(=O)O1` (centres undefined), the concentration for total growth inhibition (TGI) in the test on OVCAR-8 ovarian was greater than 100 µM; in the test on SW-620 colon it was greater than 100 µM; in the test on A549 NSCLC it was greater than 100 µM; in the test with ACHN renal, 90.4 µM; in the test with MCF7 breast, greater than 100 µM; in the test with HCC-2998 colon, greater than 100 µM. The concentration for total growth inhibition (TGI) with OVCAR-5 ovarian, in the test on HOP-62 NSCLC, in the test with SK-MEL-5 melanoma, in the test on HL-60(TB) leukemia, with SR leukemia and with HCT-116 colon was greater than 100 µM in each case. Further, the concentration for total growth inhibition (TGI) in the test on NCI-H23 lung, with LOX IMVI melanoma and in the test with TK-10 renal was greater than 100 µM in each case.

Turning to `Cc1cc(C=O)c2c(=O)c3c(O)ccc(/C=C/C(C)C)c3oc2c1`, the total growth inhibition concentration (TGI) with OVCAR-8 ovarian, in the test with SW-620 colon, with A549 NSCLC, with ACHN renal, with HCC-2998 colon and in the test on OVCAR-5 ovarian was greater than 100 µM throughout. Also, the TGI in the test with HOP-62 NSCLC is greater than 100 µM; in the test on SK-MEL-5 melanoma, greater than 100 µM; in the test with HL-60(TB) leukemia, 59.4 µM; with SR leukemia it was 78.2 µM; with HCT-116 colon, 48.1 µM; in the test on NCI-H23 lung it was greater than 100 µM. The total growth inhibition concentration (TGI) in the test with COLO 205 colon and with TK-10 renal was greater than 100 µM throughout.

`C(=C\c1cc[n+](CCc2ccccc2)cc1)/c1ccccc1`: the concentration for total growth inhibition (TGI) in the test with OVCAR-8 ovarian was 19.5 µM; in the test on SW-620 colon, 32.3 µM; with A549 NSCLC, 51.8 µM; in the test on ACHN renal, greater than 100 µM; with MCF7 breast it was greater than 100 µM; in the test with OVCAR-5 ovarian it was 88.5 µM. Besides, the concentration for total growth inhibition (TGI) in the test with HOP-62 NSCLC amounted to 40.4 µM; in the test with SK-MEL-5 melanoma it was 5.73 µM; in the test on HCT-116 colon, 65.4 µM; in the test with NCI-H23 lung it was 43.7 µM; in the test on COLO 205 colon, 25.6 µM; in the test on LOX IMVI melanoma it was 37 µM. In addition, the concentration for total growth inhibition (TGI) with TK-10 renal is greater than 100 µM.

Regarding `COC(=O)N/N=c1\cc(C(=O)Nc2ccc(C)c(C)c2)oc2cc(O)ccc12`, the TGI with OVCAR-8 ovarian, with SW-620 colon, in the test on A549 NSCLC, in the test on ACHN renal, in the test on HCC-2998 colon and in the test on OVCAR-5 ovarian was greater than 100 µM in each case. Also, the total growth inhibition concentration (TGI) with HOP-62 NSCLC, in the test with SK-MEL-5 melanoma, in the test with HL-60(TB) leukemia, in the test with SR leukemia, with HCT-116 colon and with NCI-H23 lung was greater than 100 µM each time. The total growth inhibition concentration (TGI) in the test with COLO 205 colon, with LOX IMVI melanoma and in the test on TK-10 renal was greater than 100 µM each time.

Regarding `O=C(NC1CCCCC1)c1n[nH]nc1Cl`, the concentration for total growth inhibition (TGI) with OVCAR-8 ovarian, in the test on SW-620 colon, in the test on A549 NSCLC, with ACHN renal, in the test with MCF7 breast and in the test with HCC-2998 colon was greater than 100 µM each time. The concentration for total growth inhibition (TGI) with OVCAR-5 ovarian, in the test with HOP-62 NSCLC, with SK-MEL-5 melanoma, with HCT-116 colon, with NCI-H23 lung and in the test with COLO 205 colon was greater than 100 µM in each case. For the same compound, the concentration for total growth inhibition (TGI) with LOX IMVI melanoma and with TK-10 renal was greater than 100 µM throughout.

Values taken from PubChem BioAssay (NCI).
